{"source": "patent US20090163474A1", "about": "“FXR Agonists for the Treatment of Nonalcoholic Fatty Liver and Cholesterol Gallstone Diseases” (Wyeth, priority 2007, published 2009)", "key": {"[1]": {"system": "mice fed a Paigen diet", "assay": "Gallstone formation in Paigen diet fed mice", "format": "in vivo", "conditions": "30 mg/kg orally once a day for 4 weeks", "protocol": "To study gallstone formation, gallbladders were harvested from mice fed a Paigen diet and administered vehicle or 30 mg/kg Compound A orally once a day for 4 weeks."}, "[2]": {"system": "mice fed a Paigen diet", "assay": "Gallbladder bile lipid composition, Paigen diet with treatment", "format": "in vivo", "protocol": "(§1) Disrupted cholesterol, phospholipid, and bile salt homeostasis contributes to the formation of gallstones. Gallbladder bile lipid composition was quantitated from mice treated as follows. A group of mice (CHOW) was fed a standard chow diet. Another group of mice was fed a Paigen diet and administered vehicle (Paigen/Vehicle) or 30 mg/kg Compound A (Paigen/Compound A) orally once a day for 4 weeks. To preform gallstones, mice were fed initially a Paigen diet for 4 weeks and subsequently fed a standard chow diet and administered vehicle (Preformed/Vehicle) or 30 mg/kg Compound A (Preformed/Compound A) orally once a day for 4 weeks. […] Data are presented as the mean±SE."}, "[3]": {"system": "mice with preformed gallstones", "assay": "Gallbladder bile lipid composition, preformed gallstones", "format": "in vivo", "protocol": "as §1"}, "[4]": {"system": "C57BL/6 mice fed a methionine/choline deficient (MCD) diet", "assay": "MCD diet fed mice: serum, liver gene expression and liver histology", "format": "in vivo", "protocol": "Male C57BL/6 mice were fed a standard chow diet or a methionine/choline deficient (MCD) diet (MCD diet; TD 90262, Harlan Teklad). MCD diet fed mice develop fibrosis and NAFLD including steatosis and NASH due to impaired mitochondrial β-oxidation and reduced hepatic triglyceride secretion.\nMice were administered vehicle or 30 mg/kg Compound A orally once a day for 4 weeks. Three hours after the final treatment, mice were euthanized, and blood and liver were collected for analyses.\nFIGS. 11A and 11B show the expression levels of VCAM-1 and MCP-1, respectively. Real-time RT PCR analysis of liver RNA was performed. Expression levels were normalized to GAPDH, and the mean level of expression of each gene in vehicle treated mice fed a standard chow diet was defined as 1.0. 7 mice were tested in each group. Data are presented as the mean±SE.\nFIGS. 13, 14, and 15 show representative liver sections from mice fed a standard chow diet, vehicle treated mice fed a MCD diet, and Compound A (30 mg/kg orally once a day) treated mice fed a MCD diet for 4 weeks.\nMale C57BL/6 mice were fed a standard chow diet or a MCD diet and treated with either vehicle or 30 mg/kg Compound A orally once a day for 4 weeks. Three hours after the final treatment, mice were euthanized and liver expression of CYP2E1, a reactive oxygen species (ROS) generating microsomal enzyme, was analyzed."}, "[5]": {"system": "wildtype (WT) mice fed a MCD diet", "assay": "MCD diet, wildtype mice (WT vs FXRKO study)", "format": "in vivo", "conditions": "30 mg/kg orally once a day for 4 weeks", "protocol": "(§2) Mice were fed a standard chow diet or a MCD diet and treated with either vehicle or 30 mg/kg Compound A orally once a day for 4 weeks."}, "[6]": {"system": "FXR deficient (FXRKO) mice fed a MCD diet", "assay": "MCD diet, FXR deficient mice (WT vs FXRKO study)", "format": "in vivo", "conditions": "30 mg/kg orally once a day for 4 weeks", "protocol": "as §2"}, "[7]": {"system": "C57Bl/6 mice fed a MCD diet (preformed NASH)", "assay": "Preformed NASH in MCD diet fed mice", "format": "in vivo", "conditions": "MCD diet 2 weeks", "from_the_text": "C57Bl/6 mice were fed a MCD diet for 2 weeks to induce the development of NASH to study the effect of Compound A treatment on preformed NASH. These mice were then maintained on the MCD diet while being treated with vehicle or Compound A. Mice were euthanized 2 weeks (2 w), and 4 weeks (4 w) after the beginning of treatment with vehicle or Compound A for analysis. As controls, mice were fed a chow diet or fed a MCD diet for 2 weeks, and then euthanized for analysis."}, "[8]": {"system": "Hep3B cells", "assay": "FXR siRNA studies in Hep3B cells", "format": "cell-based, Human", "conditions": "Compound A 1 μM, 50 ng/ml IL-6", "protocol": "FXR siRNA studies were performed in Hep3B cells. […] The cells were transfected with FXR siRNA or control siRNA, stimulated with 50 ng/ml IL-6, and treated with control (DMSO) or Compound A (1 μM). CRP concentrations in the conditional media were measured by ELISA. (*P<0.01, Control siRNA/DMSO vs. Control siRNA/Compound A).\nThe Hep3B cells were transfected with FXR siRNA or control siRNA, stimulated with 50 ng/ml IL-6, and treated with control (DMSO) or Compound A (1 μM). […] (*P<0.001, Control siRNA vs. FXR siRNA)."}, "[9]": {"system": "Wildtype mice challenged with CCl4", "assay": "CCl4 induced acute liver injury and fibrosis in mice", "format": "in vivo", "conditions": "30 mg/kg for 4 days, 30 μl/kg CCl4 on day 3, 24 hours", "protocol": "Wildtype mice were treated with 30 mg/kg Compound A or vehicle for 4 days. On day 3, mice were challenged with 30 μl/kg of carbon tetrachloride (CCl4) to induce acute liver injury. After 24 hours, mice were euthanized and their livers were harvested for analysis."}, "[10]": {"conditions": "Paigen/Compound A vs Paigen/Vehicle"}, "[11]": {"conditions": "Paigen/Compound A, 30 mg/kg orally once a day for 4 weeks, mean±SE"}, "[12]": {"conditions": "Preformed/Compound A vs Preformed/Vehicle"}, "[13]": {"conditions": "Preformed/Compound A, Paigen diet 4 weeks, then chow and 30 mg/kg orally once a day for 4 weeks, mean±SE"}, "[14]": {"conditions": "30 mg/kg orally once a day for 4 weeks, MCD diet"}, "[15]": {"conditions": "30 mg/kg orally once a day for 4 weeks, MCD diet, RT PCR, p<0.001"}, "[16]": {"conditions": "30 mg/kg orally once a day for 4 weeks, p<0.001"}, "[17]": {"conditions": "30 mg/kg orally once a day, MCD diet for 4 weeks"}, "[18]": {"conditions": "then 2-week (P<0.001) and 4-week (P<0.01) treatment on MCD diet"}, "[19]": {"conditions": "then 2-week and 4-week treatment on MCD diet, P<0.01"}}}
{"smiles": "CC(C)OC(=O)C1=CN(C(=O)c2ccc(F)c(F)c2)CC(C)(C)c2c1[nH]c1ccccc21", "note": "[Compound A, isopropyl 3-(3,4-difluorobenzoyl)-1,1-dimethyl-1,2,3,6-tetrahydroazepino[4,5-b]indole-5-carboxylate]", "values": [{"measurement": "cholesterol gallstones in gallbladders (gross morphology)", "setting": "[1]", "result": "clearly visible in the gallbladders of vehicle but not Compound A treated mice"}, {"measurement": "Gallstone formation (incidence, mice with gallstones/mice)", "setting": "[1]; vehicle 14/19", "result": "0/20"}, {"measurement": "incidence of gallstone formation", "setting": "[1]; vehicle 73.7%", "result": 0, "unit": "%"}, {"measurement": "bile cholesterol level increase induced by the Paigen diet, vs vehicle", "setting": "[2]; [10]", "result": "attenuated the increases"}, {"measurement": "bile phospholipid level increase induced by the Paigen diet, vs vehicle", "setting": "[2]; [10]", "result": "attenuated the increases"}, {"measurement": "BS (bile salt) in gallbladder bile", "setting": "[2]; [11]", "result": "110.42 ± 24.79", "unit": "mM"}, {"measurement": "CE (cholesterol) in gallbladder bile", "setting": "[2]; [11]", "result": "7.70 ± 0.28", "unit": "mM"}, {"measurement": "PL (phospholipids) in gallbladder bile", "setting": "[2]; [11]", "result": "20.19 ± 1.00", "unit": "mM"}, {"measurement": "bile cholesterol level vs vehicle", "setting": "[3]; [12]", "result": "higher"}, {"measurement": "bile phospholipid level vs vehicle", "setting": "[3]; [12]", "result": "higher"}, {"measurement": "bile salt level vs vehicle", "setting": "[3]; [12]", "result": "Lower"}, {"measurement": "BS (bile salt) in gallbladder bile", "setting": "[3]; [13]", "result": "120.06 ± 14.28", "unit": "mM"}, {"measurement": "CE (cholesterol) in gallbladder bile", "setting": "[3]; [13]", "result": "7.54 ± 0.86", "unit": "mM"}, {"measurement": "PL (phospholipids) in gallbladder bile", "setting": "[3]; [13]", "result": "27.54 ± 2.14", "unit": "mM"}, {"measurement": "bile salt/phospholipid ratio vs vehicle", "setting": "[3]; mice with preformed gallstones", "result": "significantly decreased"}, {"measurement": "liver FXR gene expression level", "setting": "[4]; [14]", "result": "did not normalize"}, {"measurement": "liver FXR target gene expression (SHP, BSEP)", "setting": "[4]; [14]", "result": "normalized"}, {"measurement": "liver MCP-1 expression", "setting": "[4]; [15]", "result": "significantly inhibited"}, {"measurement": "liver VCAM-1 expression", "setting": "[4]; [15]", "result": "significantly inhibited"}, {"measurement": "serum aspartate aminotransferase (AST) activity level", "setting": "[4]; 30 mg/kg orally once a day for 4 weeks, MCD diet, mean±SE, vehicle 491±38.9 U/L, p<0.0001", "result": "268±77", "unit": "U/L"}, {"measurement": "serum mKC level vs vehicle", "setting": "[4]; 30 mg/kg orally once a day for 4 weeks, MCD diet, p<0.05", "result": "reduced"}, {"measurement": "liver CYP2E1 expression levels", "setting": "[4]; 30 mg/kg orally once a day for 4 weeks, chow or MCD diet (independent of MCD diet), p<0.001", "result": "significant inhibition"}, {"measurement": "liver MMP-9 expression level (MCD diet induction)", "setting": "[4]; [16]", "result": "inhibition of MCD diet induction"}, {"measurement": "liver MMP-14 expression level (MCD diet induction)", "setting": "[4]; [16]", "result": "inhibition of MCD diet induction"}, {"measurement": "liver TIMP-1 expression level (MCD diet induction)", "setting": "[4]; [16]", "result": "inhibition of MCD diet induction"}, {"measurement": "inflammatory cell infiltration and fibrosis in liver (Trichrome staining)", "setting": "[4]; [17]", "result": "more severe in the livers of vehicle treated compared to Compound A treated mice"}, {"measurement": "inflammatory cell infiltration and portal inflammation in liver (H&E staining)", "setting": "[4]; [17]", "result": "more severe in the livers of vehicle treated compared to Compound A treated mice"}, {"measurement": "liver function, inflammation and fibrosis (histological analyses of liver sections)", "setting": "[4]; [17]", "result": "preserved liver function, and reduced liver inflammation and fibrosis"}, {"measurement": "neutral lipid accumulation in the liver (Oil Red O staining)", "setting": "[4]; [17]", "result": "no effect"}, {"measurement": "liver TIMP-1 gene expression level vs vehicle", "setting": "[5]; P<0.001", "result": "reduction"}, {"measurement": "liver VCAM-1 gene expression level vs vehicle", "setting": "[5]; P<0.001", "result": "decreasing"}, {"measurement": "liver Col1a2 expression level vs vehicle", "setting": "[5]; P<0.01", "result": "reduction"}, {"measurement": "serum ALT levels vs vehicle", "setting": "[5]; P<0.01", "result": "decreased"}, {"measurement": "effect on liver VCAM-1 levels, FXR dependence", "setting": "[6]", "result": "mediated by FXR"}, {"measurement": "hepatic protective effect (serum ALT), FXR dependence", "setting": "[6]", "result": "mediated by FXR"}, {"measurement": "reduction of liver Col1a2, FXR dependence", "setting": "[6]", "result": "mediated by FXR"}, {"measurement": "reduction of liver TIMP-1, FXR dependence", "setting": "[6]", "result": "mediated by FXR"}, {"measurement": "liver Col1a2 gene expression level vs vehicle", "setting": "[7]; [18]", "result": "significantly lowered"}, {"measurement": "liver MMP-2 gene expression level vs vehicle", "setting": "[7]; [18]", "result": "significantly lowered"}, {"measurement": "liver TIMP-1 gene expression level vs vehicle", "setting": "[7]; [18]", "result": "significantly lowered"}, {"measurement": "liver MCP-1 gene expression level vs vehicle", "setting": "[7]; [19]", "result": "significantly lowered"}, {"measurement": "liver VCAM-1 gene expression level vs vehicle", "setting": "[7]; [19]", "result": "significantly lowered"}, {"measurement": "serum level of ALT vs vehicle", "setting": "[7]; [19]", "result": "significantly reduced"}, {"measurement": "serum level of AST vs vehicle", "setting": "[7]; [19]", "result": "significantly reduced"}, {"measurement": "CRP inhibition at the mRNA level in cells transfected with FXR siRNA", "setting": "[8]", "result": "suppressed"}, {"measurement": "inhibitory effect on CRP secretion in cells transfected with FXR siRNA", "setting": "[8]; ELISA", "result": "FXR siRNA blocked Compound A's inhibitory effect"}, {"measurement": "decrease of serum ALT levels vs vehicle", "setting": "[9]; P<0.01", "result": 60, "unit": "%"}, {"measurement": "decrease of serum AST levels vs vehicle", "setting": "[9]; P<0.01", "result": 75, "unit": "%"}, {"measurement": "decrease of liver TGF-β levels (TGF-β1 mRNA) vs vehicle", "setting": "[9]; normalized to GAPDH, P<0.01", "result": 30, "unit": "%"}, {"measurement": "decrease of liver a-SMA levels (mRNA) vs vehicle", "setting": "[9]; normalized to GAPDH, P<0.01", "result": 40, "unit": "%"}, {"measurement": "decrease of liver MMP-9 levels (mRNA) vs vehicle", "setting": "[9]; normalized to GAPDH, P<0.04", "result": 75, "unit": "%"}, {"measurement": "decrease of liver TIMP-1 levels (mRNA) vs vehicle", "setting": "[9]; normalized to GAPDH, P<0.04", "result": 60, "unit": "%"}]}
